Key:
[1] = hydrated ion in aqueous solution; cited from earlier work
[2] = Solubility in water / aqueous solution; format: physicochemical
[3] = Stability of maltol in hot aqueous solution; format: physicochemical; conditions: near boiling temperatures

Which Ka [1] does the source give for `[Cl][Fe]([Cl])[Cl]` [Ferric chloride] here?
The Ka was 7×10^−3.

Which “maximum solubility in water” value ([2]; water, about 25° C.) does the source give for `Cc1occc(=O)c1[O-].Cc1occc(=O)c1[O-].Cc1occc(=O)c1[O-].[Fe+3]` [ferric trimaltol] here?
The value was “about 3.5 g/100 ml water”.

Which Ka [1] does the source give for `[Cl][Fe][Cl]` [ferrous chloride] here?
The Ka was 5×10^−9.

Which “stability in aqueous solution” value [3] does the source give for `Cc1occc(=O)c1O` [maltol, 3-hydroxy-2-methyl-4-pyrone] here?
Its value is “stable”.

What about the “solubility in aqueous alkali hydroxide solutions” value ([2]; aqueous alkali hydroxide solutions) of the same compound?
Its value is “very soluble”.

And the solubility on heating ([2]; heating to near boiling temperatures)?
The solubility on heating was 10 g/100 ml.

What about the “solubility at low pH” value ([2]; low pH values of iron chloride solutions (pH 1-5)) of the same compound?
Its value is “virtually insoluble”.

What about the solubility on heating ([2]; water, heating to temperatures above 60° C.) of the same compound?
Its solubility on heating is “up to 10 g/100 ml”.

And the maximum aqueous solubility ([2]; water, pH range 6-8, 20° C.)?
The maximum aqueous solubility was 1 g/100 ml.

Reference: patent publication US9096629B2, “Process of forming iron hydroxypyrone compounds” (Iron Therapeutics Holdings AG, priority 2011, dated 2015)
